In patent US20230278972A1, “SUBSTITUTED HALOALKYL SULFONANILIDE HERBICIDES” (FMC Corporation, priority 2020, published 2023):

What was measured:
Assay type in all cases: in vivo
kochia (Bassia scoparia) [1] = test: Test A postemergence, kochia; conditions: Postemergence, 0 to 100 scale (0 no effect, 100 complete control); for Kochia plant response rating: 500 g ai/ha, visual injury vs untreated controls after approx. 10 days
Procedure, shortened: (§1)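 Directed soil spray at planting gave the preemergence treatment, while foliar application to one- to two-leaf seedlings (2–10 cm) gave the postemergence one; pots held a loam and sand mixture and chemicals were carried in a non-phytotoxic solvent with surfactant.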

[2] = test system: Foxtail, Giant (giant foxtail, Setaria faberi); test: Test A postemergence, Foxtail, Giant; conditions: Postemergence, 0 to 100 scale (0 no effect, 100 complete control); for Foxtail, Giant plant response rating: 500 g ai/ha, visual injury vs untreated controls after approx. 10 days
Procedure, shortened: as §1

corn (Zea mays) = test: Test A postemergence, corn; conditions: Postemergence, 0 to 100 scale (0 no effect, 100 complete control); for Corn plant response rating: 500 g ai/ha, visual injury vs untreated controls after approx. 10 days
Procedure, shortened: as §1

[3] = test system: ragweed (common ragweed, Ambrosia artemisiifolia); test: Test A preemergence, ragweed; conditions: Preemergence; for Ragweed plant response rating: visual injury on 0 to 100 scale (0 no effect, 100 complete control), approximately 10 days; for Plant response rating, Ragweed: 0 to 100 scale (0 no effect, 100 complete control)
Procedure, shortened: as §1

[4] = test system: barnyardgrass (Echinochloa crus-galli); test: Test A postemergence, barnyardgrass; conditions: Postemergence, 0 to 100 scale (0 no effect, 100 complete control); for Barnyardgrass plant response rating: 500 g ai/ha, visual injury vs untreated controls after approx. 10 days
Procedure, shortened: (§2)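 Test chemicals, formulated in a non-phytotoxic solvent mixture with surfactant, were sprayed postemergence on plants 2 to 10 cm tall at the one- to two-leaf stage. Preemergence treatment was a directed soil spray onto freshly seeded pots. Both used a loam soil and sand blend.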

[5] = test system: wheat (Triticum aestivum); test: Test A postemergence, wheat; conditions: Postemergence, 0 to 100 scale (0 no effect, 100 complete control); for Wheat plant response rating: 500 g ai/ha, visual injury vs untreated controls after approx. 10 days
Procedure, shortened: as §2

[6] = test system: pigweed (Amaranthus retroflexus); test: Test A preemergence, pigweed; conditions: for Pigweed plant response rating: visual injury on 0 to 100 scale (0 no effect, 100 complete control), approximately 10 days; for Plant response rating, Pigweed: 0 to 100 scale (0 no effect, 100 complete control)
Procedure, shortened: as §2

[7] = test system: Ryegrass, Italian (Italian ryegrass, Lolium multiflorum); test: Test A postemergence, Ryegrass, Italian; conditions: Postemergence, 0 to 100 scale (0 no effect, 100 complete control); for Ryegrass, Italian plant response rating: 500 g ai/ha, visual injury vs untreated controls after approx. 10 days
Procedure, shortened: as §1

[8] = test system: ragweed (common ragweed, Ambrosia artemisiifolia); test: Test A postemergence, ragweed; conditions: Postemergence, 0 to 100 scale (0 no effect, 100 complete control); for Ragweed plant response rating: 500 g ai/ha, visual injury vs untreated controls after approx. 10 days
Procedure, shortened: as §1

kochia (Bassia scoparia) [9] = test: Test A preemergence, kochia; conditions: Preemergence; for Kochia plant response rating: visual injury on 0 to 100 scale (0 no effect, 100 complete control), approximately 10 days; for Plant response rating, Kochia: 0 to 100 scale (0 no effect, 100 complete control)
Procedure, shortened: as §1

[10] = test system: barnyardgrass (Echinochloa crus-galli); test: Test A preemergence, barnyardgrass; conditions: Preemergence; for Barnyardgrass plant response rating: 125 g ai/ha, visual injury on 0 to 100 scale (0 no effect, 100 complete control), approximately 10 days; for Plant response rating, Barnyardgrass: 0 to 100 scale (0 no effect, 100 complete control)
Procedure, shortened: as §1

[11] = test system: blackgrass (Alopecurus myosuroides); test: Test A postemergence, blackgrass; conditions: Postemergence, 0 to 100 scale (0 no effect, 100 complete control); for Blackgrass plant response rating: 500 g ai/ha, visual injury vs untreated controls after approx. 10 days
Procedure, shortened: as §1

[12] = test system: pigweed (Amaranthus retroflexus); test: Test A postemergence, pigweed; conditions: Postemergence, 0 to 100 scale (0 no effect, 100 complete control); for Pigweed plant response rating: 500 g ai/ha, visual injury vs untreated controls after approx. 10 days
Procedure, shortened: as §1

[13] = test system: Foxtail, Giant (giant foxtail, Setaria faberi); test: Test A preemergence, Foxtail, Giant; conditions: Preemergence; for Foxtail, Giant plant response rating: visual injury on 0 to 100 scale (0 no effect, 100 complete control), approximately 10 days; for Plant response rating, Foxtail, Giant: 0 to 100 scale (0 no effect, 100 complete control)
Procedure, shortened: as §1

[14] = test system: Ryegrass, Italian (Italian ryegrass, Lolium multiflorum); test: Test A preemergence, Ryegrass, Italian; conditions: Preemergence; for Ryegrass, Italian plant response rating: visual injury on 0 to 100 scale (0 no effect, 100 complete control), approximately 10 days; for Plant response rating, Ryegrass, Italian: 0 to 100 scale (0 no effect, 100 complete control)
Procedure, shortened: as §1

[15] = test system: galium (catchweed bedstraw, Galium aparine); test: Test A postemergence, galium; conditions: Postemergence, 0 to 100 scale (0 no effect, 100 complete control); for Galium plant response rating: 500 g ai/ha, visual injury vs untreated controls after approx. 10 days
Procedure, shortened: as §2

[16] = 125 g ai/ha, visual injury approx. 10 days
[17] = 31 g ai/ha, visual injury, approx. 10 days
[18] = 125 g ai/ha, visual injury, approx. 10 days

COC(=O)N(c1cc(-c2ccnn(C)c2=O)c(C)cc1C)S(=O)(=O)C(F)(F)F [Compound 53]
Plant response rating, Kochia (kochia (Bassia scoparia) [1]; [16]): 0
Kochia plant response rating (kochia (Bassia scoparia) [1]): 0
Plant response rating, Foxtail, Giant [2, 16]: 0
Foxtail, Giant plant response rating [2]: 0
Plant response rating, Corn (corn (Zea mays); [16]): 0
Corn plant response rating (corn (Zea mays)): 0
Ragweed plant response rating ([3]; 125 g ai/ha): 0
Plant response rating, Ragweed ([3]; 500 g ai/ha): 40
Plant response rating, Barnyardgrass [4, 16]: 0
Barnyardgrass plant response rating [4]: 0
Plant response rating, Wheat [5, 16]: 0
Wheat plant response rating [5]: 0
Pigweed plant response rating ([6]; 125 g ai/ha): 0
Plant response rating, Pigweed ([6]; 500 g ai/ha): 0
Plant response rating, Ryegrass, Italian [7, 16]: 0
Ryegrass, Italian plant response rating [7]: 0
Plant response rating, Ragweed [8, 16]: 20
Ragweed plant response rating [8]: 20
Kochia plant response rating (kochia (Bassia scoparia) [9]; 125 g ai/ha): 0
Plant response rating, Kochia (kochia (Bassia scoparia) [9]; 500 g ai/ha): 0
Barnyardgrass plant response rating [10]: 0
Plant response rating, Barnyardgrass ([10]; 500 g ai/ha): 0
Plant response rating, Blackgrass [11, 16]: 0
Blackgrass plant response rating [11]: 0
Plant response rating, Pigweed [12, 16]: 0
Pigweed plant response rating [12]: 0
Foxtail, Giant plant response rating ([13]; 125 g ai/ha): 0
Plant response rating, Foxtail, Giant ([13]; 500 g ai/ha): 0
Ryegrass, Italian plant response rating ([14]; 125 g ai/ha): 0
Plant response rating, Ryegrass, Italian ([14]; 500 g ai/ha): 0
Plant response rating, Galium [15, 16]: 50
Galium plant response rating [15]: 80

Cc1cc(C(F)(F)F)c(C(=O)N2CCCCC2)cc1NS(=O)(=O)C(F)(F)F [Compound 180]
Plant response rating, Kochia (kochia (Bassia scoparia) [1]; 125 g ai/ha): 10
Kochia plant response rating (kochia (Bassia scoparia) [1]): 40
Plant response rating, Foxtail, Giant ([2]; 125 g ai/ha): 10
Foxtail, Giant plant response rating [2]: 10
Plant response rating, Corn (corn (Zea mays); 125 g ai/ha): 0
Corn plant response rating (corn (Zea mays)): 0
Ragweed plant response rating ([3]; 125 g ai/ha): 20
Plant response rating, Ragweed ([3]; 500 g ai/ha): 70
Plant response rating, Barnyardgrass ([4]; 125 g ai/ha): 0
Barnyardgrass plant response rating [4]: 10
Plant response rating, Wheat ([5]; 125 g ai/ha): 0
Wheat plant response rating [5]: 0
Pigweed plant response rating ([6]; 125 g ai/ha): 20
Plant response rating, Pigweed ([6]; 500 g ai/ha): 70
Plant response rating, Ryegrass, Italian ([7]; 125 g ai/ha): 0
Ryegrass, Italian plant response rating [7]: 0
Plant response rating, Ragweed ([8]; 125 g ai/ha): 20
Ragweed plant response rating [8]: 70
Kochia plant response rating (kochia (Bassia scoparia) [9]; 125 g ai/ha): 0
Plant response rating, Kochia (kochia (Bassia scoparia) [9]; 500 g ai/ha): 0
Barnyardgrass plant response rating [10]: 0
Plant response rating, Barnyardgrass ([10]; 500 g ai/ha): 80
Plant response rating, Blackgrass ([11]; 125 g ai/ha): 0
Blackgrass plant response rating [11]: 20
Plant response rating, Pigweed ([12]; 125 g ai/ha): 50
Pigweed plant response rating [12]: 70
Foxtail, Giant plant response rating ([13]; 125 g ai/ha): 0
Plant response rating, Foxtail, Giant ([13]; 500 g ai/ha): 90
Ryegrass, Italian plant response rating ([14]; 125 g ai/ha): 0
Plant response rating, Ryegrass, Italian ([14]; 500 g ai/ha): 50
Plant response rating, Galium ([15]; 125 g ai/ha): 70
Galium plant response rating [15]: 90

COC1CCCN(C(=O)c2cc(N(COC(C)=O)S(=O)(=O)C(F)(F)F)c(C)cc2C)C1 (stereo not shown) [Compound 96]
Plant response rating, Kochia (kochia (Bassia scoparia) [1]; 31 g ai/ha): 10
Plant response rating, Kochia (kochia (Bassia scoparia) [1]; [16]): 20
Plant response rating, Foxtail, Giant ([2]; 31 g ai/ha): 0
Plant response rating, Foxtail, Giant [2, 16]: 10
Plant response rating, Corn (corn (Zea mays); 31 g ai/ha): 10
Plant response rating, Corn (corn (Zea mays); [16]): 10
Plant response rating, Ragweed [3, 17]: 0
Ragweed plant response rating ([3]; 125 g ai/ha): 30
Plant response rating, Barnyardgrass ([4]; 31 g ai/ha): 0
Plant response rating, Barnyardgrass [4, 16]: 30
Plant response rating, Wheat ([5]; 31 g ai/ha): 0
Plant response rating, Wheat [5, 16]: 40
Plant response rating, Pigweed [6, 17]: 20
Pigweed plant response rating ([6]; 125 g ai/ha): 90
Plant response rating, Ryegrass, Italian ([7]; 31 g ai/ha): 0
Plant response rating, Ryegrass, Italian [7, 16]: 20
Plant response rating, Ragweed ([8]; 31 g ai/ha): 30
Plant response rating, Ragweed [8, 16]: 40
Plant response rating, Kochia (kochia (Bassia scoparia) [9]; [17]): 0
Kochia plant response rating (kochia (Bassia scoparia) [9]; 125 g ai/ha): 0
Plant response rating, Barnyardgrass [10, 17]: 10
Barnyardgrass plant response rating [10]: 70
Plant response rating, Blackgrass ([11]; 31 g ai/ha): 0
Plant response rating, Blackgrass [11, 16]: 0
Plant response rating, Pigweed ([12]; 31 g ai/ha): 30
Plant response rating, Pigweed [12, 16]: 30
Plant response rating, Foxtail, Giant [13, 17]: 40
Foxtail, Giant plant response rating ([13]; 125 g ai/ha): 80
Plant response rating, Ryegrass, Italian [14, 17]: 0
Ryegrass, Italian plant response rating ([14]; 125 g ai/ha): 80
Plant response rating, Galium ([15]; 31 g ai/ha): 80
Plant response rating, Galium [15, 16]: 80

Cc1cc(Cl)c(N(S(=O)(=O)C(F)(F)F)S(=O)(=O)C(F)(F)F)cc1C1=NOC(C)(C)C1 [Compound 222]
Plant response rating, Kochia (kochia (Bassia scoparia) [1]; 125 g ai/ha): 10
Kochia plant response rating (kochia (Bassia scoparia) [1]): 50
Plant response rating, Foxtail, Giant ([2]; 125 g ai/ha): 0
Foxtail, Giant plant response rating [2]: 10
Plant response rating, Corn (corn (Zea mays); 125 g ai/ha): 0
Corn plant response rating (corn (Zea mays)): 0
Plant response rating, Ragweed [3, 18]: 60
Plant response rating, Ragweed ([3]; 500 g ai/ha): 90
Plant response rating, Barnyardgrass ([4]; 125 g ai/ha): 10
Barnyardgrass plant response rating [4]: 70
Plant response rating, Wheat ([5]; 125 g ai/ha): 0
Wheat plant response rating [5]: 70
Plant response rating, Pigweed [6, 18]: 50
Plant response rating, Pigweed ([6]; 500 g ai/ha): 100
Plant response rating, Ryegrass, Italian ([7]; 125 g ai/ha): 0
Ryegrass, Italian plant response rating [7]: 0
Plant response rating, Ragweed ([8]; 125 g ai/ha): 50
Ragweed plant response rating [8]: 90
Plant response rating, Kochia (kochia (Bassia scoparia) [9]; [18]): 0
Plant response rating, Kochia (kochia (Bassia scoparia) [9]; 500 g ai/ha): 40
Plant response rating, Barnyardgrass ([10]; 500 g ai/ha): 90
Plant response rating, Blackgrass ([11]; 125 g ai/ha): 20
Blackgrass plant response rating [11]: 20
Plant response rating, Pigweed ([12]; 125 g ai/ha): 20
Pigweed plant response rating [12]: 40
Plant response rating, Foxtail, Giant [13, 18]: 40
Plant response rating, Foxtail, Giant ([13]; 500 g ai/ha): 50
Plant response rating, Ryegrass, Italian [14, 18]: 30
Plant response rating, Ryegrass, Italian ([14]; 500 g ai/ha): 80
Plant response rating, Galium ([15]; 125 g ai/ha): 90
Galium plant response rating [15]: 90
